# Assay results: patent US10287275B2, “16-member triamilide derivatives and uses thereof” (VICTOR PHARMA CO., LTD. ZHENJIANG, priority 2015, dated 2019)
# What was measured:
# Format in all cases: cell-based
# M. gallisepticum S6 = assay: Mycoplasma susceptibility testing (MIC); details: Mycoplasmoides gallisepticum
# Method: (§1) The MIC's in Table I and Table II were determined by standard agar-dilution assays or broth-dilution microtiter test.
# M. gallisepticum BG44T = assay: Mycoplasma susceptibility testing (MIC); details: Mycoplasmoides gallisepticum
# Method: as §1
# M. hyorinis BTS-7 = assay: Mycoplasma susceptibility testing (MIC)
# Method: as §1
# Escherichia coli IN-F6-7 = assay: Antibacterial MIC, agar-dilution or broth-dilution microtiter test; details: INF67; Strain E: Escherichia coli IN-F6-7
# Method: as §1
# [1] = tested on: Staphylococcus aureus 5-1; assay: as above; details: 51; Strain G: Staphylococcus aureus 5-1
# Method: as §1
# Pasteurella 8229 = assay: as above; details: Strain D: Pasteurella 8229
# Method: as §1
# [2] = tested on: Klebsiella pneumoniae 3699; assay: as above; details: Strain K: Klebsiella pneumoniae 3699
# Method: as §1
# [3] = tested on: Klebsiella pneumoniae 3753; assay: as above; details: Strain J: Klebsiella pneumoniae 3753
# Method: as §1
# [4] = tested on: Streptococcus pneumoniae 2349; assay: as above; details: Strain L: Streptococcus pneumoniae 2349
# Method: as §1
# Pasteurella 8217 = assay: as above; details: Strain C: Pasteurella 8217
# Method: as §1
# [5] = tested on: Streptococcus pneumoniae 49619 (QC strain); assay: as above; details: Strain M: Streptococcus pneumoniae 49619 (QC strain)
# Method: as §1
# [6] = tested on: Actinobacillus pleuropneumoniae serotype 7; assay: as above; details: Strain B: Actinobacillus pleuropneumoniae serotype 7
# Method: as §1
# [7] = tested on: Staphylococcus aureus 29213 (QC strain); assay: as above; details: Strain H: Staphylococcus aureus 29213 (QC strain)
# Method: as §1
# salmonella LD4-8 = assay: as above; details: LD48; Strain I: salmonella LD4-8
# Method: as §1
# [8] = tested on: Actinobacillus pleuropneumoniae serotype 1; assay: as above; details: Strain A: Actinobacillus pleuropneumoniae serotype 1
# Method: as §1
# [9] = tested on: Escherichia coli 25922 (QC strain); assay: as above; details: Strain F: Escherichia coli 25922 (QC strain)
# Method: as §1
SMILES,MIC (M. gallisepticum S6),MIC (M. gallisepticum BG44T),MIC (M. hyorinis BTS-7),MIC (Escherichia coli IN-F6-7),MIC [1],MIC (Pasteurella 8229),MIC [2],MIC [3],MIC [4],MIC (Pasteurella 8217),MIC [5],MIC [6],MIC [7],MIC (salmonella LD4-8),MIC [8],MIC [9]
"CC[C@H]1OC(=O)C[C@@H](O)[C@H](C)[C@@H](O[C@@H]2O[C@H](C)[C@@H](O)[C@H](N(C)C)[C@H]2O)[C@@H](CCN2CCCCC2)C[C@@H](C)C(=O)/C=C/C(C)=C/[C@@H]1CN(CC)CC [Compound 4a, (4R,5S,6S,7R,9R,11E,13E,15R,16R)-15-((diethylamino)methyl)-6-(((2R,3R,4S,5S,6R)-4-(dimethylamino)-3,5-dihydroxy-6-methyltetrahydro-2H-pyran-2-yl)oxy)-16-ethyl-4-hydroxy-5,9,13-trimethyl-7-(2-(piperidin-1-yl)ethyl)oxacyclohexadeca-11,13-diene-2,10-dione]",< 0.12 µg/mL,< 0.12 µg/mL,62.5 µg/mL,8 µg/mL,> 256 µg/mL,0.5 µg/mL,> 256 µg/mL,32 µg/mL,0.5 µg/mL,0.5 µg/mL,8 µg/mL,32 µg/mL,4 µg/mL,4 µg/mL,32 µg/mL,4 µg/mL
"CC[C@H]1OC(=O)C[C@@H](O)[C@H](C)[C@@H](O[C@@H]2O[C@H](C)[C@@H](O)[C@H](N(C)C)[C@H]2O)[C@@H](CCN2CCCCC2)C[C@@H](C)C(=O)/C=C/C(C)=C/[C@@H]1CN1CCCCC1 [Zuprevo, reference compound]",< 0.12 µg/mL,< 0.12 µg/mL,1.95 µg/mL,4 µg/mL,> 256 µg/mL,1 µg/mL,> 256 µg/mL,32 µg/mL,0.5 µg/mL,1 µg/mL,256 µg/mL,64 µg/mL,256 µg/mL,8 µg/mL,64 µg/mL,4 µg/mL
"CCCN(CCC)C[C@H]1/C=C(C)/C=C/C(=O)[C@H](C)C[C@H](CCN2CCCCC2)[C@H](O[C@@H]2O[C@H](C)[C@@H](O)[C@H](N(C)C)[C@H]2O)[C@@H](C)[C@H](O)CC(=O)O[C@@H]1CC [Compound 4b, (4R,5S,6S,7R,9R,11E,13E,15R,16R)-6-(((2R,3R,4S,5S,6R)-4-(dimethylamino)-3,5-dihydroxy-6-methyltetrahydro-2H-pyran-2-yl)oxy)-15-((dipropylamino)methyl)-16-ethyl-4-hydroxy-5,9,13-trimethyl-7-(2-(piperidin-1-yl)ethyl)oxacyclohexadeca-11,13-diene-2,10-dione]",0.49 µg/mL,< 0.12 µg/mL,15.6 µg/mL,8 µg/mL,> 256 µg/mL,0.25 µg/mL,> 256 µg/mL,32 µg/mL,1 µg/mL,1 µg/mL,16 µg/mL,32 µg/mL,16 µg/mL,8 µg/mL,32 µg/mL,4 µg/mL
"CC[C@H]1OC(=O)C[C@@H](O)[C@H](C)[C@@H](O[C@@H]2O[C@H](C)[C@@H](O)[C@H](N(C)C)[C@H]2O)[C@@H](CCN2CCCCC2)C[C@@H](C)C(=O)/C=C/C(C)=C/[C@@H]1CN(C)Cc1ccccc1 [Compound 4f, (4R,5S,6S,7R,9R,11E,13E,15R,16R)-15-((benzyl(methyl)amino)methyl)-6-(((2R,3R,4S,5S,6R)-4-(dimethylamino)-3,5-dihydroxy-6-methyltetrahydro-2H-pyran-2-yl)oxy)-16-ethyl-4-hydroxy-5,9,13-trimethyl-7-(2-(piperidin-1-yl)ethyl)oxacyclohexadeca-11,13-diene-2,10-dione]",0.24 µg/mL,< 0.12 µg/mL,0.98 µg/mL,4 µg/mL,128 µg/mL,0.12 µg/mL,> 256 µg/mL,32 µg/mL,< 0.12 µg/mL,< 0.12 µg/mL,0.5 µg/mL,64 µg/mL,2 µg/mL,4 µg/mL,16 µg/mL,4 µg/mL
"CC[C@H]1OC(=O)C[C@@H](O)[C@H](C)[C@@H](O[C@@H]2O[C@H](C)[C@@H](O)[C@H](N(C)C)[C@H]2O)[C@@H](CCN2C[C@H](C)C[C@H](C)C2)C[C@@H](C)C(=O)/C=C/C(C)=C/[C@@H]1CO[C@@H]1O[C@H](C)[C@@H](O)[C@@H](OC)[C@H]1OC [Tilmicosin, reference compound]",< 0.12 µg/mL,< 0.12 µg/mL,3.91 µg/mL,16 µg/mL,> 256 µg/mL,0.5 µg/mL,> 256 µg/mL,64 µg/mL,0.5 µg/mL,8 µg/mL,8 µg/mL,32 µg/mL,0.5 µg/mL,32 µg/mL,32 µg/mL,8 µg/mL
